From EP2857388A1, “Azoles containing sulfone” (Grünenthal GmbH, priority 2013, dated 2015)

The compounds below were run against T1, human B1R (Homo sapiens, UniProt P46663) (assay: Functional assay at bradykinin receptor 1 (B1R): Ca2+ fluorescence (Fluo-4) in FLIPR/Novostar, antagonist mode). Conditions: test substance 10 µM; CHO K1 cells stably transfected with human B1R gene (hB1R-Zellen); agonist Lys-Des-Arg9-Bradykinin at EC80; % inhibition relative to maximal achievable inhibition.
T1 construct: expressed in transfected cells; host or cells: CHO K1 cells (Chinese Hamster Ovary), stably transfected
T1 sequence (P46663 1-353): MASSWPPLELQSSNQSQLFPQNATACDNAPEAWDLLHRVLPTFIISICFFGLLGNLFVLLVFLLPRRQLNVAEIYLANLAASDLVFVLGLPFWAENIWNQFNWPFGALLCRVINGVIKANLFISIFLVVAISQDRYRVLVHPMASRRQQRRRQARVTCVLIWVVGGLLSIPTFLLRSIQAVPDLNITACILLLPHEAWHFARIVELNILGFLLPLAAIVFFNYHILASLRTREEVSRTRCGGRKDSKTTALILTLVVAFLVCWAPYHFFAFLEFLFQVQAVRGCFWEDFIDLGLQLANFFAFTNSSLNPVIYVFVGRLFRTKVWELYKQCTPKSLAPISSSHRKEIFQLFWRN
Type: cell-based
Experimental: Die agonistische bzw. antagonistische Wirkung von Substanzen kann am Bradykinin Rezeptor 1 (B1R) der Spezies Mensch und Ratte mit ektopisch exprimierenden Zelllinien (CHO K1 Zellen) und mit Hilfe eines Ca^2+-sensitiven Farbstoffs (Fluo-4) im Fluorescent Imaging Plate Reader (FLIPR) quantifiziert werden. Die Angabe in % Aktivierung wird bezogen auf das Ca^2+-Signal nach Zugabe von Lys-Des-Arg^9-Bradykinin ([…]), bzw. Des-Arg^9-Bradykinin (100 nM). Antagonisten führen zu einer Unterdrückung des Ca^2+-Einstroms nach der Zugabe des Agonisten. Angegeben werden % Inhibition im Vergleich zu der maximal erreichbaren Inhibition.
Die agonistische bzw. antagonistische Wirkung von Substanzen kann am Bradykinin Rezeptor 1 (B1R) der Spezies Mensch und Ratte mit folgendem Assay bestimmt werden. Gemäß diesem Assay wird der intrazelluläre Ca^2+-Anstieg nach Gabe eines B1 R Agonisten mit Hilfe eines Ca^2+-sensitiven Farbstoffs (Typ Fluo-4, Molecular Probes Europe BV, Leiden NL) im Fluorescent Imaging Plate Reader (FLIPR, Molecular Devices, Sunnyvale, USA) und/oder im Novostar (BMG Labtech GmbH, Offenburg, DE) quantifiziert.
Es werden Chinese Hamster Ovary Zellen (CHO K1 Zellen) verwendet, die stabil mit dem humanen B1 R-Gen (hB1R-Zellen) bzw. dem B1 R-Gen der Ratte (rB1R-Zellen) transfiziert sind. Für funktionelle Untersuchungen werden diese Zellen auf schwarze 96-Loch-Platten mit klarem Boden (BD Biosciences, Heidelberg, DE oder Greiner, Frickenhausen, DE) in einer Dichte von 20.000 - 35.000 Zellen/Loch ausplattiert. Über Nacht werden die Zellen bei 37°C und 5 % CO2 in Kulturmedium (hB1 R-Zellen: Nutrient Mixture Ham's F12, Gibco Invitrogen GmbH, Karlsruhe, Deutschland oder DMEM, Sigma-Aldrich, Taufkirchen, Deutschland; rB1R-Zellen: D-MEM/F12, Gibco Invitrogen GmbH, Karlsruhe, DE) mit 10 Vol-% FBS (Fetal bovine serum, Gibco Invitrogen GmbH, Karlsruhe, DE oder PAN Biotech GmbH, Aidenbach, DE) belassen. Am folgenden Tag werden die Zellen mit 2,13 µM Fluo-4 (Molecular Probes Europe BV, Leiden, NL) in HBSS-Puffer (Hank's buffered saline solution, Gibco Invitrogen GmbH, Karlsruhe, DE) mit 2,5 mM Probenecid (Sigma-Aldrich, Taufkirchen, DE) und 10 mM HEPES (Sigma-Aldrich, Taufkirchen, DE) für 60 min bei 37°C beladen. Anschließend werden die Platten 2 x mit HBSS-Puffer gewaschen und mit HBSS-Puffer versetzt, der zusätzlich 0,1 % BSA (bovines Serumalbumin; Sigma-Aldrich, Taufkirchen, Deutschland), 5,6 mM Glucose und 0,05 % Gelatine (Merck KGaA, Darmstadt, DE) enthält. Nach einer weiteren Inkubation von 20 Minuten bei RT werden die Platten zur Ca^2+-Messung im FLIPR oder Novostar eingesetzt. Alternativ wird mit Puffer A (15 mM HEPES, 80 mM NaCl, 5 mM KCI, 1,2 mM CaCl2, 0,7 mM MgSO4, 2g/L Glucose, 2,5 mM Probenecid) gewaschen und mit Puffer A versetzt mit 2,5 µM Fluo-4 und 0,025 % Pluronic F127 (Sigma-Aldrich, Taufkirchen, DE) beladen. Danach werden die Zellen 2 x mit Puffer A gewaschen und für 30 Minuten mit Puffer A, der zusätzlich 0,05 % BSA und 0,05 % Gelatine enthält bei RT inkubiert und danach zur Ca^2+-Messung im FLIPR oder Novostar eingesetzt.
Die Ca^2+-abhängige Fluoreszenz wird dabei vor und nach Zugabe von Substanzen gemessen (λex = 488 nm, λem = 540 nm). Die Quantifizierung erfolgt durch die Messung der höchsten Fluoreszenzintensität (FC, Fluorescence Counts) über die Zeit.
Das FLIPR-Protokoll besteht aus 2 Substanzzugaben, die im FLIPR pipettiert werden. Bei Messungen im Novostar wird nur die zweite Substanzzugabe im Gerät pipettiert. Beide Geräte messen die Fluoreszenzintensität über die Zeit. Zunächst werden Testsubstanzen (10 µM) auf die Zellen pipettiert und der intrazelluläre Ca^2+-Anstieg mit der Kontrolle (hB1 R: Lys-Des-Arg^9-Bradykinin >= 50 nM; rB1 R: Des-Arg^9-Bradykinin >= 1 µM) verglichen. Daraus ergibt sich die Angabe in % Aktivierung bezogen auf das Ca^2+-Signal nach Zugabe von Lys-Des-Arg^9-Bradykinin (>= 50 nM), bzw. Des-Arg^9-Bradykinin (>=1 µM). Nach 6-20 Minuten Inkubation werden Lys-Des-Arg^9-Bradykinin (hB1 R) bzw. […]

| % Inhibierung (human B1R) bei 10 µM [%] | Compound |
| --- | --- |
| 98 | 2-[3-[[(2-Chlor-6-methyl-phenyl)sulfonyl]-methyl]-[1,2,4]oxadiazol-5-yl]-N-(3,3-dimethyl-piperidin-4-yl)-acetamid [CC-120] |
| 61 | 2-[3-[[(2,3-Dichlor-phenyl)sulfonyl]-methyl]-[1,2,4]oxadiazol-5-yl]-N-(1,3,3-trimethyl-piperidin-4-yl)-acetamid [CC-114] |

Same assay, conditions: test substance 10 µM; CHO K1 cells stably transfected with human B1R gene (hB1R-Zellen); agonist Lys-Des-Arg9-Bradykinin at EC80; % inhibition relative to maximal achievable inhibition; read-out: % Inhibierung (human B1R) bei 10 µM

| inhibition at 10 µM [%] | Compound |
| --- | --- |
| 100 | COc1cc(C)c(S(=O)(=O)Cc2c(C)nn(CC(=O)N(C)[C@H]3CCC[C@@H](N4CCN(C)CC4)C3)c2C)c(C)c1 [SC-83, 2-[4-[[(4-Methoxy-2,6-dimethyl-phenyl)sulfonyl]-methyl]-3,5-dimethyl-1H-pyrazol-1-yl]-N-methyl-N-[(1S,3R)-3-(4-methyl-piperazin-1-yl)-cyclohexyl]-acetamid] |
| 100 | COc1cc(C)c(S(=O)(=O)Cc2cn(CC(=O)N(C)[C@H]3CCC[C@@H](N4CCN(C)CC4)C3)nn2)c(C)c1 [SC-84, 2-[4-[[(4-Methoxy-2,6-dimethyl-phenyl)sulfonyl]-methyl]-1H-[1,2,3]triazol-1-yl]-N-methyl-N-[(1S,3R)-3-(4-methyl-piperazin-1-yl)-cyclohexyl]-acetamid] |
| 79 | Cc1cc(S(=O)(=O)Cc2noc(CC(=O)NC3CCC(N(C)C)CC3)n2)c(C)cc1Cl (stereo not shown) [CC-81, 2-[3-[[(4-Chlor-2,5-dimethyl-phenyl)sulfonyl]-methyl]-[1,2,4]oxadiazol-5-yl]-N-(4-dimethylamino-cyclohexyl)-acetamid] |
| 100 | COc1cc(C)c(S(=O)(=O)Cc2noc(CC(=O)NC3CCC(c4ccncc4)CC3)n2)c(C)c1 (stereo not shown) [SC-37, 2-[3-[[(4-Methoxy-2,6-dimethyl-phenyl)sulfonyl]-methyl]-[1,2,4]oxadiazol-5-yl]-N-(4-pyridin-4-yl-cyclohexyl)-acetamid] |
| 98 | COc1cc(C)c(S(=O)(=O)Cc2c(C)nn(CC(=O)NC3CCNCC3(C)C)c2C)c(C)c1 (stereo not shown) [CC-180, N-(3,3-Dimethyl-piperidin-4-yl)-2-[4-[[(4-methoxy-2,6-dimethyl-phenyl)sulfonyl]-methyl]-3,5-dimethyl-1 H-pyrazol-1-yl]-acetamid] |
| 100 | COc1cc(C)c(S(=O)(=O)Cc2noc(C(=O)N3CCC4(CC3)CCN(c3ccncc3)CC4)n2)c(C)c1 [SC-10, [3-[[(4-Methoxy-2,6-dimethyl-phenyl)sulfonyl]-methyl]-[1,2,4]oxadiazol-5-yl]-(9-pyridin-4-yl-3,9-diazaspiro[5.5]undecan-3-yl)-methanon] |
| 98 | COc1cc(C)c(S(=O)(=O)Cc2noc(C(=O)N3CCC(Oc4ccncc4)C3)n2)c(C)c1 (stereo not shown) [SC-03, [3-[[(4-Methoxy-2,6-dimethyl-phenyl)sulfonyl]-methyl]-[1,2,4]oxadiazol-5-yl]-(3-pyridin-4-yloxy-pyrrolidin-1-yl)-methanon] |
| 100 | COc1cc(C)c(S(=O)(=O)Cc2nnc(CC(=O)NC3CCC(N4CCCC4)CC3(C)C)o2)c(C)c1 (stereo not shown) [CC-29, N-(2,2-Dimethyl-4-pyrrolidin-1-yl-cyclohexyl)-2-[5-[[(4-methoxy-2,6-dimethyl-phenyl)sulfonyl]-methyl]-[1,3,4]oxadiazol-2-yl]-acetamid] |
| 100 | COc1cc(C)c(S(=O)(=O)Cc2nnc(CC(=O)NC3CCC(N(C)C)CC3)o2)c(C)c1 (stereo not shown) [CC-34, N-(4-Dimethylamino-cyclohexyl)-2-[5-[[(4-methoxy-2,6-dimethyl-phenyl)sulfonyl]-methyl]-[1,3,4]oxadiazol-2-yl]-acetamid] |
| 100 | COc1cc(C)c(S(=O)(=O)Cc2noc(CC(=O)NC3CCC(c4ccnc(OC)c4)CC3(C)C)n2)c(C)c1 (stereo not shown) [SC-40, 2-[3-[[(4-Methoxy-2,6-dimethyl-phenyl)sulfonyl]-methyl]-[1,2,4]oxadiazol-5-yl]-N-[4-(2-methoxy-pyridin-4-yl)-2,2-dimethyl-cyclohexyl]-acetamid] |
| 97 | COc1cc(C)c(S(=O)(=O)Cc2noc(CC(=O)N3CCC(c4ccncc4)CC3)n2)c(C)c1 [SC-41, 2-[3-[[(4-Methoxy-2,6-dimethyl-phenyl)sulfonyl]-methyl]-[1,2,4]oxadiazol-5-yl]-1-(4-pyridin-4-yl-piperidin-1-yl)-ethanon] |
| 100 | COc1cc(C)c(S(=O)(=O)Cc2cn(CC(=O)NC3CCN(C)CC3(C)C)nn2)c(C)c1 (stereo not shown) [CC-183, 2-[4-[[(4-Methoxy-2,6-dimethyl-phenyl)sulfonyl]-methyl]-1H-[1,2,3]triazol-1-yl]-N-(1,3,3-trimethyl-piperidin-4-yl)-acetamid] |
| 100 | COc1cc(C)c(S(=O)(=O)Cc2noc(C(=O)NC3CCC(N(C)C)CC3)n2)c(C)c1 (stereo not shown) [CC-04, N-(4-Dimethylamino-cyclohexyl)-3-[[(4-methoxy-2,6-dimethyl-phenyl)sulfonyl]-methyl]-[1,2,4]oxa-diazol-5-carbonsäure amid] |
| 100 | COc1cc(C)c(S(=O)(=O)Cc2noc(CC(=O)N3CCN(c4ccncc4)CC3)n2)c(C)c1 [CC-133, 2-[3-[[(4-Methoxy-2,6-dimethyl-phenyl)sulfonyl]-methyl]-[1,2,4]oxadiazol-5-yl]-1-(4-pyridin-4-yl-piperazin-1-yl)-ethanon] |
| 100 | COc1cc(C)c(S(=O)(=O)Cc2noc(C(=O)N3CCC(CN4CCN(C)CC4)C3)n2)c(C)c1 (stereo not shown) [SC-07, [3-[[(4-Methoxy-2,6-dimethyl-phenyl)sulfonyl]-methyl]-[1,2,4]oxadiazol-5-yl]-[3-[(4-methyl-piperazin-1-yl)-methyl]-pyrrolidin-1-yl]-methanon] |
| 100 | COc1cc(C)c(S(=O)(=O)Cc2noc(C(=O)NC3CCNCC3(C)C)n2)c(C)c1 (stereo not shown) [CC-17, N-(3,3-Dimethyl-piperidin-4-yl)-3-[[(4-methoxy-2,6-dimethyl-phenyl)sulfonyl]-methyl]-[1,2,4]oxa-diazol-5-carbonsäure amid] |
| 100 | COc1cc(C)c(S(=O)(=O)Cc2nc(C(=O)N(C)[C@H]3CCC[C@@H](N4CCN(C)CC4)C3)no2)c(C)c1 [SC-89, 5-[[(4-Methoxy-2,6-dimethyl-phenyl)sulfonyl]-methyl]-N-methyl-N-[(1S,3R)-3-(4-methyl-piperazin-1-yl)-cyclohexyl]-[1,2,4]oxadiazol-3-carbonsäure amid] |
